Consider 24 compounds from US20240383886A1, “Protein Tyrosine Phosphatase Degraders and Methods of Use Thereof” (CALICO LIFE SCIENCES LLC, priority 2019, published 2024).

Molecules are shown by their SMILES.

In assay [1] the test system is PTPN2. As to the kind of experiment: HiBiT-Degradation B16F10.4 PTPN2. In kind it is cell-based. Conditions: B16F10.4 cells, 24.0 hours.
Assay [2] deals with T1, PTPN2 (Homo sapiens, UniProt P17706).
T1 construct: expressed in transfected cells; host or cells: 293T (293T.109 HiBiT-PTPN2 line; parental 293T WT from ATCC)
T1 sequence (P17706 1-415): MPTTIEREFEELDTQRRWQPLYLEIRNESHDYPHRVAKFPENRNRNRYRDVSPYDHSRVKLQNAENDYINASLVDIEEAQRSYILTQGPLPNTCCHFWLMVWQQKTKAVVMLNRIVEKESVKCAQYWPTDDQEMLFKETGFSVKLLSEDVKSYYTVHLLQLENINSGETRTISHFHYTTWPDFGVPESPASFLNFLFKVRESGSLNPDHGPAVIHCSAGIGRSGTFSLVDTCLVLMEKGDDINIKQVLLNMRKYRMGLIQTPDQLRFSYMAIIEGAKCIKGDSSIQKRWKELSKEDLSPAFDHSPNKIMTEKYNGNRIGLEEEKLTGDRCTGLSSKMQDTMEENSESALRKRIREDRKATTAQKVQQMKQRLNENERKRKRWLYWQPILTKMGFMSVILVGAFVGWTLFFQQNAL
Nature of the assay: HiBiT-Degradation 293T.109 PTPN2 (Nano-Glo HiBiT Lytic Assay). The conditions noted are these: 293T.109 (HiBiT-PTPN2) cells, 24.0 hours. In kind it is cell-based. The method in brief: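 293T cells ectopically expressing N-terminally HiBiT-tagged PTPN2 were seeded at 5000 cells/well. They were treated with an 11-point half-log titration from 10 μM, in duplicate, for 24 hours at 37° C., 5% CO2. Remaining tagged PTPN2 was quantified by lytic HiBiT luminescence against untreated and no-reagent controls.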
(In general: The HiBiT peptide binds its large partner to form an active luciferase.)

Regarding `O=C1CCC(N2C(=O)c3ccc(OCc4cn(CCC(=O)Nc5ccc6c(F)c(N7CC(=O)NS7(=O)=O)c(O)cc6c5)nn4)cc3C2=O)C(=O)N1` (stereo not drawn) [Example 60], the DC50 with PTPN2 [1] and on PTPN2 [2] was 200 to 1000 nM in each case.
Turning to `O=C1CCC(N2C(=O)c3cccc(NCc4cccc(C(=O)Nc5ccc6c(F)c(N7CC(=O)NS7(=O)=O)c(O)cc6c5)c4)c3C2=O)C(=O)N1` (stereo not drawn) [Example 61], the DC50 (in general, the midpoint of the concentration-degradation curve) is at least 1000 nM in the assay with PTPN2 [1] and 200 to 1000 nM at PTPN2 [2].
With `O=C1CCC(N2Cc3c(NCc4cn(CCC(=O)Nc5ccc6c(F)c(N7CC(=O)NS7(=O)=O)c(O)cc6c5)nn4)cccc3C2=O)C(=O)N1` (stereo not drawn) [Example 62], the DC50 in the assay with PTPN2 [1] is at least 1000 nM; on PTPN2 [2], 200 to 1000 nM.
For `O=C1CCC(N2C(=O)c3cccc(NCc4cn(CCOCCOCCC(=O)Nc5ccc6c(F)c(N7CC(=O)NS7(=O)=O)c(O)cc6c5)nn4)c3C2=O)C(=O)N1` (stereo not drawn) [Example 63], in that order: at least 1000 nM and 200 to 1000 nM.
`O=C1CCC(N2C(=O)c3ccc(NCc4cnn(C5CN(C(=O)Nc6ccc7c(F)c(N8CC(=O)NS8(=O)=O)c(O)cc7c6)C5)c4)cc3C2=O)C(=O)N1` (stereo not drawn) [Example 64]: the DC50 is at least 1000 nM in the assay on PTPN2 [1] and 200 to 1000 nM on PTPN2 [2].
For `O=C1CCC(N2Cc3c(NCC(=O)N4CCC(C(=O)Nc5ccc6c(F)c(N7CC(=O)NS7(=O)=O)c(O)cc6c5)CC4)cccc3C2=O)C(=O)N1` (stereo not drawn) [Example 65], in that order: 200 to 1000 nM and 200 to 1000 nM.
For `CC(Nc1cccc2c1C(=O)N(C1CCC(=O)NC1=O)C2=O)c1cn(CCC(=O)Nc2ccc3c(F)c(N4CC(=O)NS4(=O)=O)c(O)cc3c2)nn1` (stereo not drawn) [Example 66], in that order: at least 1000 nM and 200 to 1000 nM.
For `O=C1CCC(N2C(=O)c3cccc(NCc4cn(C5CCN(CC(=O)Nc6ccc7c(F)c(N8CC(=O)NS8(=O)=O)c(O)cc7c6)CC5)nn4)c3C2=O)C(=O)N1` (stereo not drawn) [Example 67], in that order: at least 1000 nM and 200 to 1000 nM.
As to `O=C1CCC(N2C(=O)c3cccc(NCc4cn(CCC(=O)Nc5ccc6c(F)c(N7CC(=O)NS7(=O)=O)c(O)cc6c5)nn4)c3C2=O)C(=O)N1` (stereo not drawn) [Example 68], the DC50 in the assay with PTPN2 [1] was at least 1000 nM; at PTPN2 [2], 200 to 1000 nM.
For the compound `O=C1CCC(N2C(=O)c3cccc(NCc4cn(CCC(=O)Nc5ccc6c(Cl)c(N7CC(=O)NS7(=O)=O)c(O)cc6c5)nn4)c3C2=O)C(=O)N1` (stereo not drawn) [Example 69], the DC50 with PTPN2 [1] and on PTPN2 [2] was at least 1000 nM each time.
For the compound `Cn1c(=O)n(C2CCC(=O)NC2=O)c2ccc(C3CCN(CCCC(=O)Nc4ccc5c(F)c(N6CC(=O)NS6(=O)=O)c(O)cc5c4)CC3)cc21` (stereo not drawn) [Example 70], the 50% degradation concentration (DC50) with PTPN2 [1] and at PTPN2 [2] was at least 1000 nM throughout.
With `Cn1c(=O)n(C2CCC(=O)NC2=O)c2ccc(C3CCN(C(=O)c4ccc5c(F)c(N6CC(=O)NS6(=O)=O)c(O)cc5c4)CC3)cc21` (stereo not drawn) [Example 71], the 50% degradation concentration (DC50) with PTPN2 [1] and at PTPN2 [2] was at least 1000 nM each time.
As for `Cn1c(=O)n(C2CCC(=O)NC2=O)c2ccc(C3CCN(CCC(=O)N4CCC(c5ccc6cc(O)c(N7CC(=O)NS7(=O)=O)c(F)c6c5)C4)CC3)cc21` (stereo not drawn) [Example 72, 3-[5-[1-[3-[3-[8-fluoro-6-hydroxy-7-(1,1,4-trioxo-1,2,5-thiadiazolidin-2-yl)-2-naphthyl]pyrrolidin-1-yl]-3-oxo-propyl]-4-piperidyl]-3-methyl-2-oxo-benzimidazol-1-yl]piperidine-2,6-dione], the values for the DC50 in the assay on PTPN2 [1] and at PTPN2 [2] were 50 to 200 nM and 10 to 50 nM, respectively.
Take `Cn1c(=O)n(C2CCC(=O)NC2=O)c2ccc(C3CCN(C(=O)Cn4cc(-c5ccc6c(F)c(N7CC(=O)NS7(=O)=O)c(O)cc6c5)cn4)CC3(F)F)cc21` (stereo not drawn) [Example 73, 3-[5-[3,3-difluoro-1-[2-[4-[5-fluoro-7-hydroxy-6-(1,1,4-trioxo-1,2,5-thiadiazolidin-2-yl)-2-naphthyl]pyrazol-1-yl]acetyl]-4-piperidyl]-3-methyl-2-oxo-benzimidazol-1-yl]piperidine-2,6-dione]: the DC50 with PTPN2 [1] and on PTPN2 [2] was 10 to 50 nM in each case.
Turning to `Cn1c(=O)n(C2CCC(=O)NC2=O)c2ccc(C3CCN(C(=O)Cn4cc(-c5ccc6c(F)c(N7CC(=O)NS7(=O)=O)c(O)cc6c5)cn4)CC3)cc21` (stereo not drawn) [Example 74, 3-[5-[1-[2-[4-[5-fluoro-7-hydroxy-6-(1,1,4-trioxo-1,2,5-thiadiazolidin-2-yl)-2-naphthyl]pyrazol-1-yl]acetyl]-4-piperidyl]-3-methyl-2-oxo-benzimidazol-1-yl]piperidine-2,6-dione], the DC50 in the assay with PTPN2 [1] was 50 to 200 nM; at PTPN2 [2] it was under 10 nM.
For `Cn1c(=O)n(C2CCC(=O)NC2=O)c2ccc(-c3ccc(CC(=O)Nc4ccc5c(F)c(N6CC(=O)NS6(=O)=O)c(O)cc5c4)cc3)cc21` (stereo not drawn) [Example 77, 2-[4-[1-(2,6-dioxo-3-piperidyl)-3-methyl-2-oxo-benzimidazol-5-yl]phenyl]-N-[5-fluoro-7-hydroxy-6-(1,1,4-trioxo-1,2,5-thiadiazolidin-2-yl)-2-naphthyl]acetamide], in that order: 10 to 50 nM and 10 to 50 nM.
For `Cn1c(=O)n(C2CCC(=O)NC2=O)c2ccc(N3CCC(CC(=O)Nc4ccc5c(F)c(N6CC(=O)NS6(=O)=O)c(O)cc5c4)CC3)cc21` (stereo not drawn) [Example 78, N-(6-(1,1-dioxido-4-oxo-1,2,5-thiadiazolidin-2-yl)-5-fluoro-7-hydroxynaphthalen-2-yl)-2-(1-(1-(2,6-dioxopiperidin-3-yl)-3-methyl-2-oxo-2,3-dihydro-1H-benzo[d]imidazol-5-yl)piperidin-4-yl)acetamide], in that order: 10 to 50 nM and 10 to 50 nM.
For `Cn1nc(C2CCC(=O)NC2=O)c2ccc(C3CCN(C(=O)Cn4cc(-c5ccc6c(F)c(N7CC(=O)NS7(=O)=O)c(O)cc6c5)cn4)CC3)cc21` (stereo not drawn) [Example 79, 3-[6-[1-[2-[4-[5-fluoro-7-hydroxy-6-(1,1,4-trioxo-1,2,5-thiadiazolidin-2-yl)-2-naphthyl]pyrazol-1-yl]acetyl]-4-piperidyl]-1-methyl-indazol-3-yl]piperidine-2,6-dione], in that order: 200 to 1000 nM and 10 to 50 nM.
Take `Cn1c(=O)n(C2CCC(=O)NC2=O)c2ccc(C3CCN(CC(=O)N4CC(Oc5ccc6cc(O)c(N7CC(=O)NS7(=O)=O)c(F)c6c5)C4)CC3(F)F)cc21` (stereo not drawn) [Example 80, 3-[5-[3,3-difluoro-1-[2-[3-[[8-fluoro-6-hydroxy-7-(1,1,4-trioxo-1,2,5-thiadiazolidin-2-yl)-2-naphthyl]oxy]azetidin-1-yl]-2-oxo-ethyl]-4-piperidyl]-3-methyl-2-oxo-benzimidazol-1-yl]piperidine-2,6-dione]: the DC50 in the assay with PTPN2 [1] was 50 to 200 nM; at PTPN2 [2] it was 10 to 50 nM.
For `Cn1c(=O)n(C2CCC(=O)NC2=O)c2ccc(N3CCC(O)(CC(=O)Nc4ccc5c(F)c(N6CC(=O)NS6(=O)=O)c(O)cc5c4)CC3)cc21` (stereo not drawn) [Example 82, 2-[1-[1-(2,6-dioxo-3-piperidyl)-3-methyl-2-oxo-benzimidazol-5-yl]-4-hydroxy-4-piperidyl]-N-[5-fluoro-7-hydroxy-6-(1,1,4-trioxo-1,2,5-thiadiazolidin-2-yl)-2-naphthyl]acetamide], in that order: 200 to 1000 nM and under 10 nM.
For `Cn1nc(C2CCC(=O)NC2=O)c2ccc(N3CCC(O)(CC(=O)Nc4ccc5c(F)c(N6CC(=O)NS6(=O)=O)c(O)cc5c4)CC3)cc21` (stereo not drawn) [Example 83, 2-[1-[3-(2,6-dioxo-3-piperidyl)-1-methyl-indazol-6-yl]-4-hydroxy-4-piperidyl]-N-[5-fluoro-7-hydroxy-6-(1,1,4-trioxo-1,2,5-thiadiazolidin-2-yl)-2-naphthyl]acetamide], in that order: 10 to 50 nM and under 10 nM.
For `Cn1c(=O)n(C2CCC(=O)NC2=O)c2ccc(N3CCC(OCC(=O)Nc4ccc5c(F)c(N6CC(=O)NS6(=O)=O)c(O)cc5c4)CC3)cc21` (stereo not drawn) [Example 84, 2-[[1-[1-(2,6-dioxo-3-piperidyl)-3-methyl-2-oxo-benzimidazol-5-yl]-4-piperidyl]oxy]-N-[5-fluoro-7-hydroxy-6-(1,1,4-trioxo-1,2,5-thiadiazolidin-2-yl)-2-naphthyl]acetamide], the results for the DC50 with PTPN2 [1] and at PTPN2 [2] were 50 to 200 nM and 10 to 50 nM, respectively.
For `CC(C)n1c(=O)n(C2CCC(=O)NC2=O)c2ccc(C3CCN(CC(=O)NCCOc4ccc5cc(O)c(N6CC(=O)NS6(=O)=O)c(F)c5c4)CC3)cc21` (stereo not drawn) [Example 85, 2-[4-[1-(2,6-dioxo-3-piperidyl)-3-isopropyl-2-oxo-benzimidazol-5-yl]-1-piperidyl]-N-[2-[[8-fluoro-6-hydroxy-7-(1,1,4-trioxo-1,2,5-thiadiazolidin-2-yl)-2-naphthyl]oxy]ethyl]acetamide], in that order: 200 to 1000 nM and 50 to 200 nM.
For `Cn1c(=O)n(C2CCC(=O)NC2=O)c2ccc(C3CCN(C4CC(C(=O)Nc5ccc6c(F)c(N7CC(=O)NS7(=O)=O)c(O)cc6c5)C4)CC3)cc21` (stereo not drawn) [Example 86, 3-[4-[1-(2,6-dioxo-3-piperidyl)-3-methyl-2-oxo-benzimidazol-5-yl]-1-piperidyl]-N-[5-fluoro-7-hydroxy-6-(1,1,4-trioxo-1,2,5-thiadiazolidin-2-yl)-2-naphthyl]cyclobutanecarboxamide], in that order: 50 to 200 nM and 10 to 50 nM.
